Experimental data reported in patent US12435060B2, “Acylamino bridged heterocyclic compound, and composition and application thereof” (BEIJING SCITECH-MQ PHARMACEUTICALS LIMITED, priority 2019, dated 2025).

test system: HT29 cells; assay: Inhibition of cell necrosis (CCK8 method), induced programmed necrosis of HT29 cells; type: cell-based; settings: Homo sapiens, HT-29; rescue from necrosis induced by TNF-α 20 ng/mL, AT-406 1 μM, Z-VAD-FMK 20 μM; 16-20 hours; CCK-8, OD 450 nm
Summary of the method: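 Rescue from programmed necrosis was scored by CCK-8 absorbance at 450 nm after 16-20 h of TNF-α (20 ng/mL), AT-406 (1 μM) and Z-VAD-FMK (20 μM) at 37 °C, 5% CO2. HT29 cells had received compound 30 min earlier across nine 4-fold dilutions (top 25000 nM final). IC50 came from % inhibition relative to uninduced and induced-only wells.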

First: COCCOc1ccc(C)c(-c2ccnc(NC(=O)c3nnc(Cc4ccccc4)s3)c2)c1 [Example 130, 5-benzyl-N-(4-(5-(2-methoxyethoxy)-2-methylphenyl)pyridin-2-yl)-1,3,4-thiodiazol-2-carboxamide]
Second: COCCCOc1ccc(C)c(-c2ccnc(NC(=O)c3nnc(Cc4ccccc4)s3)c2)c1 [Example 146, 5-benzyl-N-(4-(5-(3-methoxypropoxy)-2-methylphenyl)pyridin-2-yl)-1,3,4-thiodiazol-2-carboxamide]
The IC50 of the first is higher: greater than 10000 nM for the first, 1000 to 10000 nM for the second. The second is the more potent here.

`CCOCCOc1ccc(C)c(-c2ccnc(NC(=O)c3nnc(Cc4ccccc4)[nH]3)c2)c1` [Example 131, 5-benzyl-N-(4-(5-(2-ethoxyethoxy)-2-methylphenyl)pyridin-2-yl)-4H-1,2,4-triazole-3-carboxamide] and `CCOCCCOc1ccc(C)c(-c2ccnc(NC(=O)c3nnc(Cc4ccccc4)[nH]3)c2)c1` [Example 147, 5-benzyl-N-(4-(5-(3-ethoxypropoxy)-2-methylphenyl)pyridin-2-yl)-4H-1,2,4-triazole-3-carboxamide] cannot be ordered by IC50: no more than 100 nM for the first, no more than 100 nM for the second.

`Cc1ncc(OCCOC(C)C)cc1-c1ccnc(NC(=O)c2nnc(Cc3ccccc3)[nH]2)c1` [Example 132, 5-benzyl-N-(5-(2-isopropoxyethoxy)-2-methyl-[3,4′-dipyridine]-2′-yl)-4H-1,2,4-triazole-3-carboxamide] and `Cc1ccc(OCCOC(C)C)cc1-c1ccnc(NC(=O)c2nnc(Cc3ccccc3)[nH]2)c1` [Example 133, 5-benzyl-N-(4-(5-(2-isopropoxyethoxy)-2-methylphenyl)pyridin-2-yl)-4H-1,2,4-triazole-3-carboxamide] cannot be ordered by IC50: 100 to 1000 nM for the first, no more than 100 nM for the second.

Compared with `Cc1ccc(OCCN(C)C)cc1-c1ccnc(NC(=O)c2nnc(Cc3ccccc3)[nH]2)c1` [Example 134, 5-benzyl-N-(4-(5-(2-(dimethylamino)ethoxy)-2-methylphenyl)pyridin-2-yl)-4H-1,2,4-triazole-3-carboxamide], `Cc1ccc(OCCCN(C)C)cc1-c1ccnc(NC(=O)c2nnc(Cc3ccccc3)[nH]2)c1` [Example 139, 5-benzyl-N-(4-(5-(3-(dimethylamino)propoxy)-2-methylphenyl)pyridin-2-yl)-4H-1,2,4-triazole-3-carboxamide] is higher in IC50: 100 to 1000 nM for the first, greater than 10000 nM for the second.

`CCN(CC)CCOc1ccc(C)c(-c2ccnc(NC(=O)c3nnc(Cc4ccccc4)[nH]3)c2)c1` [Example 135, 5-benzyl-N-(4-(5-(2-(diethylamino)ethoxy)-2-methylphenyl)pyridin-2-yl)-4H-1,2,4-triazole-3-carboxamide] and `Cc1ccc(OCCCO)cc1-c1ccnc(NC(=O)c2nnc(Cc3ccccc3)[nH]2)c1` [Example 140, 5-benzyl-N-(4-(5-(3-hydroxylpropoxy)-2-methylphenyl)pyridin-2-yl)-4H-1,2,4-triazole-3-carboxamide] cannot be ordered by IC50: no more than 100 nM for the first, no more than 100 nM for the second.

`Cc1ccc(OCCN2CCN(C)CC2)cc1-c1ccnc(NC(=O)c2nnc(Cc3ccccc3)[nH]2)c1` [Example 136, 5-benzyl-N-(4-(2-methyl-5-(2-(4-methylpiperazin-1-yl)ethoxy)phenyl)pyridin-2-yl)-4H-1,2,4-triazole-3-carboxamide] and `COCCCOc1ccc(C)c(-c2ccnc(NC(=O)c3nnc(Cc4ccccc4)[nH]3)c2)c1` [Example 141, 5-benzyl-N-(4-(5-(3-methoxypropoxy)-2-methylphenyl)pyridin-2-yl)-4H-1,2,4-triazole-3-carboxamide] cannot be ordered by IC50: no more than 100 nM for the first, no more than 100 nM for the second.

`Cc1ccc(OCCC2OCCO2)cc1-c1ccnc(NC(=O)c2nnc(Cc3ccccc3)[nH]2)c1` [Example 137, N-(4-(5-(2-(1,3-dioxolan-2-yl)ethoxy)-2-methylphenyl)pyridin-2-yl)-5-benzyl-4H-1,2,4-triazole-3-carboxamide] and `Cc1ccc(OCCCCO)cc1-c1ccnc(NC(=O)c2nnc(Cc3ccccc3)[nH]2)c1` [Example 151, 5-benzyl-N-(4-(5-(4-hydroxybutoxy)-2-methylphenyl)pyridin-2-yl)-4H-1,2,4-triazole-3-carboxamide] cannot be ordered by IC50: no more than 100 nM for the first, no more than 100 nM for the second.

`Cc1ccc(OCCCC(F)(F)F)cc1-c1ccnc(NC(=O)c2nnc(Cc3ccccc3)[nH]2)c1` [Example 138, 5-benzyl-N-(4-(2-methyl-5-(4,4,4-trifluorobutoxy)phenyl)pyridin-2-yl)-4H-1,2,4-triazole-3-carboxamide] and `Cc1ccc(OCCCC#N)cc1-c1ccnc(NC(=O)c2nnc(Cc3ccccc3)[nH]2)c1` [Example 148, 5-benzyl-N-(4-(5-(3-cyanopropoxy)-2-methylphenyl)pyridin-2-yl)-4H-1,2,4-triazole-3-carboxamide] cannot be ordered by IC50: no more than 100 nM for the first, no more than 100 nM for the second.

`COCCCOc1ccc(C)c(-c2ccnc(NC(=O)c3nnc(C(C)c4ccccc4)[nH]3)c2)c1` (centres unmarked) [Example 142, N-(4-(5-(3-methoxypropoxy)-2-methylphenyl)pyridin-2-yl)-5-(1-phenylethyl)-4H-1,2,4-triazole-3-carboxamide] and `COCCCOc1ccc(C)c(-c2ccnc(NC(=O)c3nnc(C(C)c4ccccc4)o3)c2)c1` (centres unmarked) [Example 143, N-(4-(5-(3-methoxypropoxy)-2-methylphenyl)pyridin-2-yl)-5-(1-phenylethyl)-1,3,4-oxadiazol-2-carboxamide] fall in the same range of IC50: 100 to 1000 nM for the first, 100 to 1000 nM for the second.

`COCCCOc1ccc(C)c(-c2ccnc(NC(=O)c3nnc(CC4CCCC4)[nH]3)c2)c1` [Example 144, 5-(cyclopentylmethyl)-N-(4-(5-(3-methoxypropoxy)-2-methylphenyl)pyridin-2-yl)-4H-1,2,4-triazole-3-carboxamide] and `COCCCOc1ccc(C)c(-c2ccnc(NC(=O)c3nnc(CC4CCCCC4)[nH]3)c2)c1` [Example 145, 5-(cyclohexylmethyl)-N-(4-(5-(3-methoxypropoxy)-2-methylphenyl)pyridin-2-yl)-4H-1,2,4-triazole-3-carboxamide] cannot be ordered by IC50: no more than 100 nM for the first, no more than 100 nM for the second.

`C=CCCCOc1ccc(C)c(-c2ccnc(NC(=O)c3nnc(Cc4ccccc4)[nH]3)c2)c1` [Example 149, 5-benzyl-N-(4-(2-methyl-5-(pent-4-en-1-yloxy)phenyl)pyridin-2-yl)-4H-1,2,4-triazole-3-carboxamide] and `CSCCCCOc1ccc(C)c(-c2ccnc(NC(=O)c3nnc(Cc4ccccc4)[nH]3)c2)c1` [Example 150, 5-benzyl-N-(4-(2-methyl-5-(4-(methylthio)butoxy)phenyl)pyridin-2-yl)-4H-1,2,4-triazole-3-carboxamide] cannot be ordered by IC50: no more than 100 nM for the first, no more than 100 nM for the second.

`COCCCCOc1ccc(C)c(-c2ccnc(NC(=O)c3nnc(Cc4ccccc4)[nH]3)c2)c1` [Example 152, 5-benzyl-N-(4-(5-(4-methoxybutoxy)-2-methylphenyl)pyridin-2-yl)-4H-1,2,4-triazole-3-carboxamide] and `Cc1ccc(OCCCCCO)cc1-c1ccnc(NC(=O)c2nnc(Cc3ccccc3)[nH]2)c1` [Example 153, 5-benzyl-N-(4-(5-((5-hydroxylpentyl)oxy)-2-methylphenyl)pyridin-2-yl)-4H-1,2,4-triazole-3-carboxamide] cannot be ordered by IC50: no more than 100 nM for the first, no more than 100 nM for the second.

`Cc1ccc(OCCCCCCCCO)cc1-c1ccnc(NC(=O)c2nnc(Cc3ccccc3)[nH]2)c1` [Example 154, 5-benzyl-N-(4-(5-((8-hydroxyoctyl)oxy)-2-methylphenyl)pyridin-2-yl)-4H-1,2,4-triazole-3-carboxamide] and `Cc1ccc(OC2CC2)cc1-c1ccnc(NC(=O)c2nnc(Cc3ccccc3)[nH]2)c1` [Example 155, 5-benzyl-N-(4-(5-cyclopropoxy-2-methylphenyl)pyridin-2-yl)-4H-1,2,4-triazole-3-carboxamide] cannot be ordered by IC50: no more than 100 nM for the first, 100 to 1000 nM for the second.
